Target: Melanin-concentrating hormone receptor 1 (Rattus norvegicus, UniProt P97639)
Sequence (P97639 whole entry): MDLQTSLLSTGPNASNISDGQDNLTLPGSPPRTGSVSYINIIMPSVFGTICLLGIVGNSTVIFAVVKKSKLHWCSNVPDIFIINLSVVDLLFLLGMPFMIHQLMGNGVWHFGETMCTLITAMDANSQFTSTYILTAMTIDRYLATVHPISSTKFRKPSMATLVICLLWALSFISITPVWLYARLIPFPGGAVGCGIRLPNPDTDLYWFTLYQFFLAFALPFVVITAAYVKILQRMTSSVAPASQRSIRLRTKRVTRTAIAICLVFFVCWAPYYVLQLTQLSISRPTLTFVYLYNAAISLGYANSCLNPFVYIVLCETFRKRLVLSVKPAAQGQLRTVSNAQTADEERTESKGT

Work on `CN(C)CC1CCc2cc(NC(=O)c3ccc(-c4ccc(F)cc4)cc3)ccc2C1` (stereo unspecified) [4''-Fluoro-biphenyl-4-carboxylic acid (6-dimethylaminomethyl-5,6,7,8-tetrahydro-naphthalen-2-yl)-amide] yielded a Ki of 8.6 nM.
